Laboratory results reported in patent publication US20110172296A1, “MODULATION OF TRANSFORMING GROWTH FACTOR-BETA 1 EXPRESSION” (priority 2010, published 2011).
Where “and” joins values, the source holds several entries; their conditions need not be identical. Equal entries are not always repeated. In the oligonucleotide strings, read from the 5' end, every base follows the letter of its sugar. An asterisk marks phosphorothioate; unmarked linkages are phosphodiester. Other units and linkages are bracketed, terminal groups are in braces. A string of capitals states the bases alone. e = 2'-O-(2-methoxyethyl) (MOE); [5mC] = 5-methylcytosine; d = 2'-deoxy (DNA)

System: human TGF-beta1 mRNA
Assay: Antisense inhibition of human TGF-beta1 mRNA in HuVEC cells, single 10 nM dose, Lipofectamine 2000 (Example 2)
Type: cell-based
Details: for % inhibition: 10 nM oligonucleotide, HuVEC, relative to untreated control cells; for inhibition of a TGF-beta1 mRNA: threshold lists of Oligo IDs, 10 nM
Protocol: Antisense oligonucleotides targeted to a TGF-beta1 nucleic acid were tested for their effects on TGF-beta1 mRNA in vitro. Cultured HuVEC cells at a density of 5,000 cells per well were transfected using Lipofectamine™ 2000 reagent with 10 nM antisense oligonucleotide for 4 hours. After a recovery period of approximately 24 hours, RNA was isolated from the cells and TGF-beta1 mRNA levels were measured by quantitative real-time PCR. TGF-beta1 mRNA levels were adjusted according to total RNA content, as measured by RIBOGREEN®. Results are presented as percent inhibition of TGF-beta1, relative to untreated control cells.
The chimeric antisense oligonucleotides in Tables 1 and 2 were designed as 2-13-5 MOE gapmers. Antisense molecules with this motif targeting TGF-beta1 are unique, and represent a novel chemical structure for an ASO directed against this target. The gapmers are 20 nucleotides in length, wherein the central gap segments are comprised of thirteen 2′-deoxynucleotides and are flanked on the 5′ side by wings comprising two nucleotides each and on the 3′ side by wings comprising five nucleotides each. Each nucleotide in the 5′ wing segment and each nucleotide in the 3′ wing segment has a 2′-MOE modification. The internucleoside linkages throughout each gapmer are phosphorothioate (P═S) linkages. All cytosine residues throughout each gapmer are 5-methylcytosines. “Target start site” indicates the 5′-most nucleotide to which the gapmer is targeted. “Target stop site” indicates the 3′-most nucleotide to which the gapmer is targeted. Each gapmer listed in Table 1 is targeted to SEQ ID NO: 1 (GENBANK Accession No. NM_000660.3). Each gapmer listed in Table 2 is targeted to SEQ ID NO: 2 (GENBANK Accession No. NT 011109.15 truncated from 14103000 to […]).

[1] = gapmers targeted to SEQ ID NO: 1

414006 (antisense eT*eA*d[5mC]*d[5mC]*dA*dG*dA*dA*dG*dG*dT*dG*dG*dG*dT*eG*eG*eT*e[5mC]*eT) [compound 414006]
% inhibition [1]: 85%
inhibition of a TGF-beta1 mRNA: 60% and 65% and 70% and 75% and 80% and 85%

414007 (antisense eG*eG*dT*dA*d[5mC]*d[5mC]*dA*dG*dA*dA*dG*dG*dT*dG*dG*eG*eT*eG*eG*eT) [compound 414007]
% inhibition [1]: 94%
inhibition of a TGF-beta1 mRNA: 60% and 65% and 70% and 75% and 80% and 85% and 90%

414008 (antisense e[5mC]*eT*dG*dG*dT*dA*d[5mC]*d[5mC]*dA*dG*dA*dA*dG*dG*dT*eG*eG*eG*eT*eG) [compound 414008]
% inhibition [1]: 89%
inhibition of a TGF-beta1 mRNA: 60% and 65% and 70% and 75% and 80% and 85%

414009 (antisense eA*eT*d[5mC]*dT*dG*dG*dT*dA*d[5mC]*d[5mC]*dA*dG*dA*dA*dG*eG*eT*eG*eG*eG) [compound 414009]
% inhibition [1]: 80%
inhibition of a TGF-beta1 mRNA: 60% and 65% and 70% and 75% and 80%

414010 (antisense e[5mC]*eG*dA*dT*d[5mC]*dT*dG*dG*dT*dA*d[5mC]*d[5mC]*dA*dG*dA*eA*eG*eG*eT*eG) [compound 414010]
% inhibition [1]: 88%
inhibition of a TGF-beta1 mRNA: 60% and 65% and 70% and 75% and 80% and 85%

414011 (antisense e[5mC]*eG*d[5mC]*dG*dA*dT*d[5mC]*dT*dG*dG*dT*dA*d[5mC]*d[5mC]*dA*eG*eA*eA*eG*eG) [compound 414011]
% inhibition [1]: 85%
inhibition of a TGF-beta1 mRNA: 60% and 65% and 70% and 75% and 80% and 85%

414012 (antisense eG*eG*d[5mC]*dG*d[5mC]*dG*dA*dT*d[5mC]*dT*dG*dG*dT*dA*d[5mC]*e[5mC]*eA*eG*eA*eA) [compound 414012]
% inhibition [1]: 87%
inhibition of a TGF-beta1 mRNA: 60% and 65% and 70% and 75% and 80% and 85%

414013 (antisense eT*eG*dG*dG*d[5mC]*dG*d[5mC]*dG*dA*dT*d[5mC]*dT*dG*dG*dT*eA*e[5mC]*e[5mC]*eA*eG) [compound 414013]
% inhibition [1]: 90%
inhibition of a TGF-beta1 mRNA: 60% and 65% and 70% and 75% and 80% and 85% and 90%

414014 (antisense eG*eA*dT*dG*dG*dG*d[5mC]*dG*d[5mC]*dG*dA*dT*d[5mC]*dT*dG*eG*eT*eA*e[5mC]*e[5mC]) [compound 414014]
% inhibition [1]: 89%
inhibition of a TGF-beta1 mRNA: 60% and 65% and 70% and 75% and 80% and 85%

414015 (antisense e[5mC]*e[5mC]*dT*dA*dG*dA*dT*dG*dG*dG*d[5mC]*dG*d[5mC]*dG*dA*eT*e[5mC]*eT*eG*eG) [compound 414015]
% inhibition [1]: 83%
inhibition of a TGF-beta1 mRNA: 60% and 65% and 70% and 75% and 80%

414016 (antisense eA*eA*d[5mC]*d[5mC]*dT*dA*dG*dA*dT*dG*dG*dG*d[5mC]*dG*d[5mC]*eG*eA*eT*e[5mC]*eT) [compound 414016]
% inhibition [1]: 78%
inhibition of a TGF-beta1 mRNA: 60% and 65% and 70% and 75%

414017 (antisense eA*eT*dA*dA*d[5mC]*d[5mC]*dT*dA*dG*dA*dT*dG*dG*dG*d[5mC]*eG*e[5mC]*eG*eA*eT) [compound 414017]
% inhibition [1]: 77%
inhibition of a TGF-beta1 mRNA: 60% and 65% and 70% and 75%

414018 (antisense eA*eA*dA*dT*dA*dA*d[5mC]*d[5mC]*dT*dA*dG*dA*dT*dG*dG*eG*e[5mC]*eG*e[5mC]*eG) [compound 414018]
% inhibition [1]: 82%
inhibition of a TGF-beta1 mRNA: 60% and 65% and 70% and 75% and 80%

414019 (antisense eG*eG*dA*dA*dA*dT*dA*dA*d[5mC]*d[5mC]*dT*dA*dG*dA*dT*eG*eG*eG*e[5mC]*eG) [compound 414019]
% inhibition [1]: 78%
inhibition of a TGF-beta1 mRNA: 60% and 65% and 70% and 75%

414020 (antisense eG*eG*dA*dG*dG*d[5mC]*d[5mC]*d[5mC]*d[5mC]*dG*d[5mC]*d[5mC]*d[5mC]*d[5mC]*dT*eG*e[5mC]*eA*eG*eG) [compound 414020]
% inhibition [1]: 0%

414021 (antisense eT*eG*dT*dA*d[5mC]*dA*dG*dG*dG*d[5mC]*dG*dA*dG*d[5mC]*dA*e[5mC]*eG*eG*e[5mC]*e[5mC]) [compound 414021]
% inhibition (gapmers targeted to SEQ ID NO: 2): 74%
inhibition of a TGF-beta1 mRNA: 60% and 65% and 70%

414023 (antisense eT*e[5mC]*dG*dG*dG*d[5mC]*dT*d[5mC]*d[5mC]*dG*dG*dT*dT*d[5mC]*dT*eG*e[5mC]*eA*e[5mC]*eT) [compound 414023]
% inhibition [1]: 78%
inhibition of a TGF-beta1 mRNA: 60% and 65% and 70% and 75%

414024 (antisense eG*e[5mC]*dT*d[5mC]*dG*dG*dG*d[5mC]*dT*d[5mC]*d[5mC]*dG*dG*dT*dT*e[5mC]*eT*eG*e[5mC]*eA) [compound 414024]
% inhibition [1]: 83%
inhibition of a TGF-beta1 mRNA: 60% and 65% and 70% and 75% and 80%

414025 (antisense eA*eG*dG*d[5mC]*dT*d[5mC]*dG*dG*dG*d[5mC]*dT*d[5mC]*d[5mC]*dG*dG*eT*eT*e[5mC]*eT*eG) [compound 414025]
% inhibition [1]: 79%
inhibition of a TGF-beta1 mRNA: 60% and 65% and 70% and 75%

414026 (antisense e[5mC]*e[5mC]*dT*d[5mC]*dA*dG*dG*d[5mC]*dT*d[5mC]*dG*dG*dG*d[5mC]*dT*e[5mC]*e[5mC]*eG*eG*eT) [compound 414026]
% inhibition [1]: 82%
inhibition of a TGF-beta1 mRNA: 60% and 65% and 70% and 75% and 80%

414027 (antisense eG*eG*d[5mC]*d[5mC]*dT*d[5mC]*dA*dG*dG*d[5mC]*dT*d[5mC]*dG*dG*dG*e[5mC]*eT*e[5mC]*e[5mC]*eG) [compound 414027]
% inhibition [1]: 84%
inhibition of a TGF-beta1 mRNA: 60% and 65% and 70% and 75% and 80%

414028 (antisense e[5mC]*e[5mC]*dA*dT*dT*dA*dG*d[5mC]*dA*d[5mC]*dG*d[5mC]*dG*dG*dG*eT*eG*eA*e[5mC]*e[5mC]) [compound 414028]
% inhibition [1]: 75%
inhibition of a TGF-beta1 mRNA: 60% and 65% and 70% and 75%

414029 (antisense eG*eA*dG*d[5mC]*dT*d[5mC]*dT*dG*dA*dT*dG*dT*dG*dT*dT*eG*eA*eA*eG*eA) [compound 414029]
% inhibition [1]: 73%
inhibition of a TGF-beta1 mRNA: 60% and 65% and 70%

414030 (antisense e[5mC]*eT*dA*dA*dG*dG*d[5mC]*dG*dA*dA*dA*dG*d[5mC]*d[5mC]*d[5mC]*eT*e[5mC]*eA*eA*eT) [compound 414030]
% inhibition [1]: 60%
inhibition of a TGF-beta1 mRNA: 60%

414031 (antisense eA*eT*dG*dT*d[5mC]*d[5mC]*dA*d[5mC]*dT*dT*dG*d[5mC]*dA*dG*dT*eG*eT*eG*eT*eT) [compound 414031]
% inhibition [1]: 66%
inhibition of a TGF-beta1 mRNA: 60% and 65%

414032 (antisense eG*eG*dG*dT*dT*dA*dT*dG*d[5mC]*dT*dG*dG*dT*dT*dG*eT*eA*e[5mC]*eA*eG) [compound 414032]
% inhibition [1]: 80%
inhibition of a TGF-beta1 mRNA: 60% and 65% and 70% and 75% and 80%

414033 (antisense e[5mC]*eT*d[5mC]*d[5mC]*dA*d[5mC]*d[5mC]*dT*dT*dG*dG*dG*d[5mC]*dT*dT*eG*e[5mC]*eG*eG*e[5mC]) [compound 414033]
% inhibition [1]: 80%
inhibition of a TGF-beta1 mRNA: 60% and 65% and 70% and 75% and 80%

414034 (antisense e[5mC]*e[5mC]*dT*dT*dA*dA*dA*dT*dA*d[5mC]*dA*dG*d[5mC]*d[5mC]*d[5mC]*e[5mC]*e[5mC]*eA*eT*eG) [compound 414034]
% inhibition [1]: 68%
inhibition of a TGF-beta1 mRNA: 60% and 65%

414038 (antisense eA*e[5mC]*dG*dG*dG*dT*dG*dT*d[5mC]*d[5mC]*dT*dT*dA*dA*dA*eT*eA*e[5mC]*eA*eG) [compound 414038]
% inhibition [1]: 85%
inhibition of a TGF-beta1 mRNA: 60% and 65% and 70% and 75% and 80% and 85%

414039 (antisense eG*e[5mC]*dA*d[5mC]*dG*dG*dG*dT*dG*dT*d[5mC]*d[5mC]*dT*dT*dA*eA*eA*eT*eA*e[5mC]) [compound 414039]
% inhibition [1]: 83%
inhibition of a TGF-beta1 mRNA: 60% and 65% and 70% and 75% and 80%

414041 (antisense eA*e[5mC]*dA*dG*dA*dG*dA*dT*d[5mC]*d[5mC]*dG*d[5mC]*dA*dG*dT*e[5mC]*e[5mC]*eT*e[5mC]*eT) [compound 414041]
% inhibition [1]: 74%
inhibition of a TGF-beta1 mRNA: 60% and 65% and 70%

414042 (antisense e[5mC]*eG*d[5mC]*d[5mC]*d[5mC]*dA*dA*dT*dG*dA*d[5mC]*dA*d[5mC]*dA*dG*eA*eG*eA*eT*e[5mC]) [compound 414042]
% inhibition [1]: 68%
inhibition of a TGF-beta1 mRNA: 60% and 65%

414043 (antisense e[5mC]*e[5mC]*dT*dT*dG*dA*dT*dG*d[5mC]*d[5mC]*dG*dG*dG*d[5mC]*dA*eA*eA*eG*eG*eA) [compound 414043]
% inhibition [1]: 64%
inhibition of a TGF-beta1 mRNA: 60%

414044 (antisense eA*eT*d[5mC]*dT*dA*dA*d[5mC]*dT*dA*d[5mC]*dA*dG*dT*dA*dG*eT*eG*eT*eT*e[5mC]) [compound 414044]
% inhibition [1]: 31%
